{"source": "patent US9359322B2", "about": "“C-linked glucuronide of N-(4-hydroxybenzyl) retinone, analogs thereof, and methods of using the same to inhibit neoplastic cell growth” (Wisconsin Alumni Research Foundation, priority 2005, dated 2016)", "key": {"[1]": {"test_system": "DMBA-induced rat mammary tumor", "assay": "DMBA-induced rat mammary tumor model, retinoid-containing diets", "assay_type": "in vivo", "description": "Preliminary evaluation of the mammary tumor chemotherapeutic activity of 4-HBRCG (7) was conducted, and its toxicity profile was also assessed. As previously described,^7, 12 tumor-bearing female rats (treated ca. 50 days earlier with 7,12-dimethylbenz(a)anthracene [DMBA]) were fed the control or retinoid-containing diets (RA (2), 4-HPR (3) or 4-HBRCG (7)) at 2 mmole/kg diet for 22 days.\nAnimal Studies: Mammary tumors were induced by intragastric intubation of 50-day old female Sprague-Dawley rats (Harlan Industries, Indianapolis, Ind.) with a single dose of 15 mg DMBA in 1.0 ml of sesame oil per rat. The rats were then maintained on a powdered Teklad 22/5 rodent chow diet (W) 8640 (Harlan Industries, Indianapolis, Ind.), and allowed food and water ad libitum. Four months later, rats which had developed palpable tumors were randomly assigned to the experimental groups (4 rats/group). The retinoid-treated groups were fed diets supplemented with 2 mmol/kg diet of atRA, 4-HPR, or 4-HBRCG, respectively. The retinoids were added to the diet in a vehicle consisting of 25 ml of ethanol: tricaprylin (1:4 v/v) plus 2% (w/v) of α-tocopherol as previously described.^9 This vehicle was also added to the control diet. The additives were blended into the chow diets using a Hobart food mixer. The diets were fed in stainless steel feeders designed with food hoppers. The food was replaced weekly with freshly prepared diets. Food consumption was determined once weekly, and from that the average daily consumption/rat was estimated. These diets were continuously fed for 22 days. Animals were also weighted weekly and monitored for general health status and signs of possible toxicity due to treatment.\n(§1) Baseline measurement of initial tumor sizes, numbers and rat body weights were determined immediately before commencement of treatments, and final measurements were recorded just prior to sacrifice of the animals. Animals were palpated for tumors twice weekly and tumor diameters were measured weekly by a micrometer caliper. Tumor volumes were calculated using the formula [V= 4/3 πr^3] where r is one-half the mean of the sum of the largest diameter and the axis at right angle to it. All tumors as well as lungs, liver, kidney and femur were excised at the end of the experiment for chemical and histopathological evaluation. Blood samples were also taken from each animal for determination of plasma retinol and triglyceride levels."}, "[2]": {"assay": "Plasma retinol level (HPLC)", "assay_type": "in vivo, rat", "conditions": "2 mmol/kg diet", "description": "as §1\n(§2) Plasma Retinoid Assay. To 500 μL of plasma was added 150 μL of ethanol containing 0.75 μg of internal standard (N-(4-chlorophenyl) retinamide). After mixing 30 sec., 500 μL of ethyl acetate was added followed by 1 min. of mixing and centrifugation for 5 minutes at 1000 rpm in an IEC CL centrifuge. The ethyl acetate layer was removed and syringe filtered through a 0.45 um filter. The ethyl acetate extraction was repeated two more times. The combined extracts were evaporated and the residue reconstituted in 100 μL of methanol. The methanol extract (20 μL) was analyzed by HPLC on a Beckman Instruments model 127 instrument equipped with a model 166 UV detector. Chromatography was done on a precolumn equipped 250×4.6 mm Bechman Ultrasphere ODS column with an 85% methanol/water mobile phase (both containing 10 mM ammonium acetate) flowing at 1 mL/min. Analysis for both internal standard and retinol was conducted at 350 nm and internal standard recoveries and retinol levels were determined by comparison with standard curves, with adjustment of the retinol level based on recovery. Recoveries of internal standard averaged ca. 78%. […] In the 4-HPR treated group, plasma levels of this retinoid were evaluated simultaneously in the same samples as above. In order to avoid interfering substances, plasma treatment retinoid levels for RA and 4-HBRCG were measured using the above system and a step gradient of 75% methanol for 15 min. followed by 85% methanol for 40 minutes."}, "[3]": {"assay": "Terminal plasma drug levels (plasma retinoid assay, HPLC)", "assay_type": "in vivo, rat", "conditions": "day 22 of treatment; 2 mmol/kg diet; ± SEM", "description": "as §2"}, "[4]": {"assay": "Femur bone mineral content", "assay_type": "in vivo, rat", "conditions": "end of feeding study; FIG. 2B", "excerpt": "Bone Mineral Content. The femur was disarticulated from the leg, and the adhering soft tissue was removed by dissection. Femurs were scanned using the Lunar PIXImus 2 system (Model X2608, General Electric using the LUNAR software version 1.45), and control measurements were made using the small animal quality control phantom. Femurs were scanned 5 times each with re-positioning at each measure. The average value of the bone mineral content (BMC) in grams for each animal is reported as one independent measure."}, "RARγ": {"biological_target": "T1, RARγ (Homo sapiens, UniProt P13631)", "T1 sequence (P13631 1-454)": "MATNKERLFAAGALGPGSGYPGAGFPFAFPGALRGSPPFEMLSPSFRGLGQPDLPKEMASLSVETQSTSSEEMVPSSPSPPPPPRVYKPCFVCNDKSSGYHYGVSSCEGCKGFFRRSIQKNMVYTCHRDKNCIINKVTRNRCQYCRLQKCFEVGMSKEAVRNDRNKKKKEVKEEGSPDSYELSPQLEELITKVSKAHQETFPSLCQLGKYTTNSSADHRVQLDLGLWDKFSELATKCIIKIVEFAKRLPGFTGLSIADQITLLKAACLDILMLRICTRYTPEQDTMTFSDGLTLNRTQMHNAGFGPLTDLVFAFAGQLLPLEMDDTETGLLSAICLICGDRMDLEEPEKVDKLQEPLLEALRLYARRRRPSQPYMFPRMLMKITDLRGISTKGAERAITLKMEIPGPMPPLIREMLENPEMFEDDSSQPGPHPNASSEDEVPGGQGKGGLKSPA", "assay": "Nuclear retinoid receptor binding assay, competition with [3H]all-trans RA", "conditions": "competition for [3H]atRA; present work", "description": "Nuclear Retinoid Receptor Binding Assay. Competition of 3 and 7 and 4-HBRCGlucose with [^3H]-all-trans-RA (4.2-4.6 nM) for binding to RARβ and RARγ and with [^3H]-9-cis RA (1.9 nM) for binding to RXRγ was determined using an in vitro ligand binding assay.^41, 42 [^3H]-all-trans-RA (40.5 Ci/mmole) or [^3H]-9-cis-RA (69.4 Ci/mmole) was added to receptor-containing extracts in the absence and presence of increasing concentrations of competing ligands at 4° C. for 3 hr. A hydroxylapatite (HAP) assay was used to separate ligand bound to receptor from that free in solution, and the radioactivity associated with the HAP pellet was measured by scintillation counting."}, "CYP26A1 mRNA": {"test_system": "CYP26A1 mRNA", "assay": "Induction of CYP26A1 mRNA in liver (Q-PCR)", "assay_type": "in vivo, rat", "conditions": "at sacrifice, retinoid-fed rats, 2 mmol/kg diet; FIG. 4"}, "[5]": {"conditions": "number of individual tumors, 2 mmol/kg diet, 22 days"}}, "note": "Marks after values point to notes of the source that are not given here."}
{"smiles": "CC1=C(/C=C/C(C)=C/C=C/C(C)=C/C(=O)Cc2ccc(CC3OC(C(=O)O)C(O)C(O)C3O)cc2)C(C)(C)CCC1", "note": "[4-HBRCG (7), 2,6-Anhydro-7-deoxy-7-[4-(retinoylmethyl)-phenyl]-L-glycero-L-gulo-heptinoic acid]", "values": [{"measurement": "% Change in tumor volume from baseline", "setting": "[1]; 2 mmol/kg diet for 22 days", "result": "−33 ^d %"}, {"measurement": "Final tumor volume", "setting": "[1]; 2 mmol/kg diet for 22 days, mean ± SEM", "result": "0.08 ± 0.05", "unit": "cm^3"}, {"measurement": "Initial tumor volumes", "setting": "[1]; baseline before treatment, mean ± SEM", "result": "0.12 ± 0.06", "unit": "cm^3"}, {"measurement": "Complete regression (tumors that totally disappeared)", "setting": "[1]; [5]", "result": 2}, {"measurement": "No effect", "setting": "[1]; [5]", "result": 2}, {"measurement": "Partial regression (tumors with 25-75% decrease in volume)", "setting": "[1]; [5]", "result": 6}, {"measurement": "New tumors", "setting": "[1]; number of tumors, 2 mmol/kg diet, 22 days", "result": 0}, {"measurement": "Effect on blood retinol", "setting": "[2]", "result": "did not produce any significant reduction in blood retinol"}, {"measurement": "Plasma retinol", "setting": "[2]; day 22 of treatment, mean ± SEM", "result": "0.40 ± 0.04", "unit": "µg/mL"}, {"measurement": "Plasma retinoid concentration (terminal plasma drug level)", "setting": "[3]", "result": "0.10 ± 0.01", "unit": "µg/mL"}, {"measurement": "Effect on femur bone mineral content vs control", "setting": "[4]", "result": "showed no such effect"}, {"measurement": "Times less potent than atRA in binding to RARγ", "setting": "RARγ", "result": 1400, "unit": "times"}, {"measurement": "Induction of CYP26A1 mRNA in liver", "setting": "CYP26A1 mRNA", "result": "did not induce these cytochrome p450 mRNAs"}]}
